Measurements from PMC9487510, “A Novel Oral GyrB/ParE Dual Binding Inhibitor Effective against Multidrug-Resistant Neisseria gonorrhoeae and Other High-Threat Pathogens” (Antimicrobial Agents and Chemotherapy, 2022).
Values after ≈ are worked out from the molar mass of the structure shown.

Tests used:
VISA = experiment: MIC, in vitro susceptibility testing (CLSI); format: cell-based, Staphylococcus aureus; conditions: for MIC: Staphylococcus aureus, VISA
E. coli = experiment: microbe, parasite or virus in culture; format: cell-based; conditions: Escherichia coli

Q: For `CNc1cc(F)cc2c1[nH]c1nc(Oc3cnc(C)nc3)nc(N3CCC4(CC3)CO[C@@H](CO)C4)c12` [JSF-2414], which MIC range (VISA; N = 8) is on record?
A: 0.0156 to 0.063 µg/mL

Q: And the MIC (VISA; strain 2 11 43)?
A: 0.0156 to 0.031 µg/mL (≈ 0.0316 to 0.0628 µM)

Q: What about the MIC (VISA; strain 2 11 56) of the same molecule?
A: 0.063 µg/mL (≈ 0.128 µM)

Q: And the MIC (VISA; strain 2 11 57)?
A: 0.031 to 0.063 µg/mL (≈ 0.0628 to 0.128 µM)

Q: What about the MIC (VISA; strain 2 11 61) of the same molecule?
A: 0.0156 to 0.031 µg/mL (≈ 0.0316 to 0.0628 µM)

Q: What about the MIC (VISA; strain 2 11 71) of the same molecule?
A: 0.0156 to 0.031 µg/mL (≈ 0.0316 to 0.0628 µM)

Q: And the MIC (VISA; strain 2 11 78)?
A: 0.0156 to 0.031 µg/mL (≈ 0.0316 to 0.0628 µM)

Q: What about the MIC (VISA; strain 2 11 86) of the same molecule?
A: 0.031 µg/mL (≈ 0.0628 µM)

Q: What about the MIC (VISA; strain 2 13 52) of the same molecule?
A: 0.0156 to 0.031 µg/mL (≈ 0.0316 to 0.0628 µM)

Q: What about the MIC (E. coli) of the same molecule?
A: 0.5 µg/mL (≈ 1.01 µM)
